This passage reports efflux ratio and IC50 results from US11851440B2, “Modulators of eukaryotic initiation factor 2B, compositions and methods” (Denali Therapeutics Inc., priority 2017, dated 2023).

Data set [1] deals with T1, P-gp (P-glycoprotein, MDR1) (Homo sapiens, UniProt P08183).
T1 construct: host or cells: MDCKII-MDR1 cells (pre-plated, Corning HTS Transwell-96)
Put plainly: MDCKII-MDR1 permeability, bidirectional assay. In kind it is in vitro ADME. The conditions noted are these: dog, MDCK-MDR1, MDCKII-MDR1 cells, HBSS+12.5 mM HEPES pH 7.4. As for the experimental part: The blood brain barrier (BBB) separates circulating blood from the extracellular fluid of the central nervous system (CNS). […] A bidirectional assay (Apical to Basolateral (A→B) and Basolateral to Apical (B→A)), in the absence and in the presence of GF120918 (a P-gp inhibitor) was conducted using pre-plated MDCKII-MDR1 cells (Corning HTS Transwell-96) obtained from SOLVO Biotechnology. The assay was run at 3 μM for 90 min (minutes) in triplicate using a HBSS+12.5 mM HEPES pH 7.4 transport buffer. Following incubation of samples from donor and receiver, wells were removed and measured by LC-MS/MS. Samples were extracted by protein precipitation with acetonitrile containing an appropriate internal standard (IS) having a known mass and molecular weight. The precipitate was centrifuged for 10 min at 3000 rpm (revolutions per minute). The supernatants were then collected, diluted if necessary, and injected on to the LC-MS/MS system. Specific parent/daughter ion pairs for the test article and IS were used to selectively measure the test articles. Papp (apparent permeability expressed in nm/sec [nanometer/second]) values were calculated according to the following equation: […]
Where dQ/dt is the permeability rate, C0 is the initial concentration in the donor solution (expressed as IS ratio), A and B are the surface areas of the filter (the surface area of the cell monolayer).
Monolayer efflux ratios (ER) were derived using the following equation: […]

In data set [2] the test system is ISR pathway (ATF4 translation). Put plainly: ATF4 Nano Luciferase reporter integrated stress response (ISR) assay in H4 ATF4-NLuc cells. The conditions noted are these: Homo sapiens, compound 30 minutes, then 50 um sodium arsenite for 6 hours, luminescence readout.
The mark [3] stands for this setting: read-out: Activity (IC50), H4 ATF4-NLuc (clone 17) cells.

Where two headings read alike, the source gives them in different places.

T1 sequence (P08183 whole entry): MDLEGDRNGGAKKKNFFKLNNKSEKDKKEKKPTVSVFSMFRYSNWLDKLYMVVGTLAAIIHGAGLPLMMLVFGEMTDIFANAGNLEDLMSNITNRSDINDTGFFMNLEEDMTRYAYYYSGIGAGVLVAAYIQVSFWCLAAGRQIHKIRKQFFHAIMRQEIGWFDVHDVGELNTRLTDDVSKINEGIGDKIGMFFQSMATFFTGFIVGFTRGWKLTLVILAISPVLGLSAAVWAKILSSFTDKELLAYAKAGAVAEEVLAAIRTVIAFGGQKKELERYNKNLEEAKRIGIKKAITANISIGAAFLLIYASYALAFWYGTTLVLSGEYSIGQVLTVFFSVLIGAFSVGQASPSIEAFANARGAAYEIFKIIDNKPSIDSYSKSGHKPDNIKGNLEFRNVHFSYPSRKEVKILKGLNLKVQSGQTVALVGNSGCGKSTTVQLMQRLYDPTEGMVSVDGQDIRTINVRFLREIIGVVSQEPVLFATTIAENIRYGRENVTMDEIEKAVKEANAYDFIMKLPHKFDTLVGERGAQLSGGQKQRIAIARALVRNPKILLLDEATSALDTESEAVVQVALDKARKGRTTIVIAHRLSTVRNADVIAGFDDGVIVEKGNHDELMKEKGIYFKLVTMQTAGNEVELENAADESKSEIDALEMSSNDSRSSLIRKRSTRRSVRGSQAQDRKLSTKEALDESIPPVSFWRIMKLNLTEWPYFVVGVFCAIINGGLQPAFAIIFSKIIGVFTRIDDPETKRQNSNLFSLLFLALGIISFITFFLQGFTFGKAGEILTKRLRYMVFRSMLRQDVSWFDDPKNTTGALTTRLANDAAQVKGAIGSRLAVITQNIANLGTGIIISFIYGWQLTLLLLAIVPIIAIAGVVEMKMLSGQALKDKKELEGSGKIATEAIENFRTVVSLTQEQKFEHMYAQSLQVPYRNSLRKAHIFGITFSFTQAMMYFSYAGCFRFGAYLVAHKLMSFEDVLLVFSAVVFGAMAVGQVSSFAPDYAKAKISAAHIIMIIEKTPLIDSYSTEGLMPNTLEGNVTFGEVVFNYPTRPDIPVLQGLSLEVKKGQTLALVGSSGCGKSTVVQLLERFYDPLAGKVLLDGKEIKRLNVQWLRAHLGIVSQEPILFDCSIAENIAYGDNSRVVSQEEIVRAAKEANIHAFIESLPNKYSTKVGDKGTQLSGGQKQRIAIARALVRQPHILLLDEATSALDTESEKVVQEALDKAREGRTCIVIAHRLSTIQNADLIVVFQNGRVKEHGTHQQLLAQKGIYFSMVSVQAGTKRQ

In the case of `O=C(CO[C@H]1C[C@@H](OC(F)(F)F)C1)NC12CC(n3cnc(-c4ccc(Cl)c(F)c4F)c3)(C1)C2` [Example 270, N-(3-(4-(4-chloro-2,3-difluorophenyl)-1H-imidazol-1-yl)bicyclo[1.1.1]pentan-1-yl)-2-(3-cis-(trifluoromethoxy)cyclobutoxy)acetamide], the efflux ratio (usually the permeability from basolateral to apical divided by that in the opposite direction, in the common usage) at 90 min, 3 μM in data set [1] is no more than 2.5. In addition, the IC50 (usually the concentration that gives 50% inhibition) in data set [2] (H4 ATF4-NLuc (clone 17) cells) was 1.1 nM; in data set [2] (setting [3]), less than 1000 nM.
For the compound `O=C(CO[C@H]1C[C@@H](OC(F)(F)F)C1)NC12CC(n3cnc(-c4ccc(Cl)cc4F)c3)(C1)C2` [Example 146, N-(3-(4-(4-chloro-2-fluorophenyl)-1H-imidazol-1-yl)bicyclo[1.1.1]pentan-1-yl)-2-(3-cis-(trifluoromethoxy)cyclobutoxy)acetamide], in data set [1], the efflux ratio at 90 min, 3 μM was no more than 2.5. Further, the IC50 in data set [2] (H4 ATF4-NLuc (clone 17) cells) was 3.7 nM; in data set [2] (setting [3]) it was less than 1000 nM.
With `O=C(CO[C@H]1C[C@@H](OC(F)(F)F)C1)NC12CC(c3cc(-c4ccc(Cl)c(F)c4)no3)(C1)C2` [Example 248, N-(3-(3-(4-chloro-3-fluorophenyl)isoxazol-5-yl)bicyclo[1.1.1]pentan-1-yl)-2-(3-cis-(trifluoromethoxy)cyclobutoxy)acetamide], the efflux ratio at 90 min, 3 μM in data set [1] is no more than 2.5. For the same compound, the values for the IC50 in data set [2] (H4 ATF4-NLuc (clone 17) cells) and in data set [2] (setting [3]) were 28.2 nM and less than 1000 nM, respectively.
For `O=C(CO[C@H]1C[C@@H](OC(F)(F)F)C1)NC12CC(n3cnc(-c4ccc(Cl)cc4)c3)(C1)C2` [Example 139, N-(3-(4-(4-chlorophenyl)-1H-imidazol-1-yl)bicyclo[1.1.1]pentan-1-yl)-2-(3-cis-(trifluoromethoxy)cyclobutoxy)acetamide], the efflux ratio at 90 min, 3 μM in data set [1] is no more than 2.5. Besides, the results for the IC50 in data set [2] (H4 ATF4-NLuc (clone 17) cells) and in data set [2] (setting [3]) were 4.3 nM and less than 1000 nM, respectively.
In the case of `O=C(CO[C@H]1C[C@@H](OC(F)(F)F)C1)NC12CC(n3cnc(-c4ccc(C(F)(F)F)cc4O)c3)(C1)C2` [Example 254, N-(3-(4-(2-hydroxy-4-(trifluoromethyl)phenyl)-1H-imidazol-1-yl)bicyclo[1.1.1]pentan-1-yl)-2-(3-cis-(trifluoromethoxy)cyclobutoxy)acetamide], in data set [1], the efflux ratio at 90 min, 3 μM is no more than 2.5. Also, the values for the IC50 in data set [2] (H4 ATF4-NLuc (clone 17) cells) and in data set [2] (setting [3]) were 5.3 nM and less than 1000 nM, respectively.
On to `O=C(COc1ccc(Cl)c(F)c1)NC12CC(c3nnc([C@@H]4C[C@H]4COC(F)(F)F)o3)(C1)C2` (single isomer, unassigned) [Example 81, 2-(4-chloro-3-fluoro-phenoxy)-N-[3-[5-[2-trans-(trifluoromethoxymethyl)cyclopropyl]-1,3,4-oxadiazol-2-yl]-1-bicyclo[1.1.1]pentanyl]acetamide], for which the efflux ratio at 90 min, 3 μM in data set [1] was no more than 2.5. Also, the values for the 50% inhibitory concentration (IC50) in data set [2] (H4 ATF4-NLuc (clone 17) cells) and in data set [2] (setting [3]) were 11.8 nM and less than 1000 nM, respectively.
Consider `O=C(COc1ccc(Cl)c(F)c1)NC12CC(NCCO[C@H]3C[C@@H](OC(F)(F)F)C3)(C1)C2` [Example 133, 2-(4-chloro-3-fluoro-phenoxy)-N-[1-[2-[cis-3-(trifluoromethoxy)cyclobutoxy]ethylamino]-3-bicyclo[1.1.1]pentanyl]acetamide], for which the efflux ratio at 90 min, 3 μM in data set [1] is no more than 2.5. Moreover, the IC50 in data set [2] (H4 ATF4-NLuc (clone 17) cells) was 18.1 nM; in data set [2] (setting [3]) it was less than 1000 nM.
Consider `O=C(CO[C@H]1C[C@@H](OC(F)(F)F)C1)NC12CC(c3cnn(-c4ccc(Cl)c(F)c4)c3)(C1)C2` [Example 236, N-(3-(1-(4-chloro-3-fluorophenyl)-1H-pyrazol-4-yl)bicyclo[1.1.1]pentan-1-yl)-2-(3-cis-(trifluoromethoxy)cyclobutoxy)acetamide], for which the efflux ratio at 90 min, 3 μM in data set [1] was no more than 2.5. Further, the IC50 in data set [2] (H4 ATF4-NLuc (clone 17) cells) was 21.5 nM; in data set [2] (setting [3]), less than 1000 nM.
Consider `O=C(COc1ccc(Cl)c(F)c1)NC12CC(c3nnc(CCCOC(F)(F)F)o3)(C1)C2` [Example 49, 2-(4-chloro-3-fluorophenoxy)-N-(3-(5-(3-(trifluoromethoxy)propyl)-1,3,4-oxadiazol-2-yl)bicyclo[1.1.1]pentan-1-yl)acetamide], for which the efflux ratio at 90 min, 3 μM in data set [1] is no more than 2.5. Also, the IC50 in data set [2] (H4 ATF4-NLuc (clone 17) cells) was 18.2 nM; in data set [2] (setting [3]), less than 1000 nM.
For `O=C(CO[C@H]1C[C@@H](OC(F)(F)F)C1)NC12CC(n3cnc(-c4ccc(Cl)c(F)c4)c3)(C1)C2` [Example 70, N-[3-[4-(4-chloro-3-fluoro-phenyl)imidazol-1-yl]-1-bicyclo[1.1.1]pentanyl]-2-[3-cis-(trifluoromethoxy)cyclobutoxy]acetamide] the same measures were no more than 2.5, 2.8 nM and less than 1000 nM.
